In ChEMBL document CHEMBL3991601, “The target landscape of clinical kinase drugs” (Science, 2017) one finds Kd data, which are given here for 3 molecules.

Each structure is given as a SMILES string. Active and inactive are the calls of the source. For most assays here, no stated cut-off is given here; in the data, actives have a measured Kd and inactives only a lower limit.

For assay [1], the target named is T1, Serine/threonine-protein kinase TBK1 (Homo sapiens, UniProt Q9UHD2).
T1 sequence (Q9UHD2 whole entry): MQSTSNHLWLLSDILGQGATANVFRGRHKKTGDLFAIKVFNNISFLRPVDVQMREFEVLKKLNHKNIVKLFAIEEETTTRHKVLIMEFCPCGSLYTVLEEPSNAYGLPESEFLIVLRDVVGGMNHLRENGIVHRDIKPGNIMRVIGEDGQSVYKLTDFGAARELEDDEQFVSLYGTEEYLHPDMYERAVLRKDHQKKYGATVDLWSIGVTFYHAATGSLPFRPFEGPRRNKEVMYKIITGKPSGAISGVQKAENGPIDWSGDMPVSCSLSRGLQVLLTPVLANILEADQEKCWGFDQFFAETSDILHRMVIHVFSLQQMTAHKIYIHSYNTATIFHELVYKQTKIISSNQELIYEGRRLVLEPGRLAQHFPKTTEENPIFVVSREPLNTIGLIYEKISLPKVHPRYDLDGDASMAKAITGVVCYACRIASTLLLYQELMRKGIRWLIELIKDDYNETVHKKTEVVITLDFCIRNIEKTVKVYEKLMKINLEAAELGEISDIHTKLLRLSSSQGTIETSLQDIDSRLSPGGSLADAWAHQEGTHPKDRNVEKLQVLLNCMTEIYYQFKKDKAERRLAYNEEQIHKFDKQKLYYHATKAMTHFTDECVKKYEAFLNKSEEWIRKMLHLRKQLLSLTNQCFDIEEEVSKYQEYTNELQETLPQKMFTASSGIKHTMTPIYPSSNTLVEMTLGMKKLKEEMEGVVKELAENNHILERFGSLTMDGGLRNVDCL

Assay [2] deals with Serine/threonine-protein kinase PAK 4 (Homo sapiens, UniProt O96013).
Assay [3] addresses Mitogen-activated protein kinase 10 (Homo sapiens, UniProt P53779).
In assay [4] the target is Casein kinase II subunit alpha' (Homo sapiens, UniProt P19784).
Assay [5] deals with Epidermal growth factor receptor (Homo sapiens, UniProt P00533).
For assay [6], the target named is T2, Membrane-associated tyrosine- and threonine-specific cdc2-inhibitory kinase (Homo sapiens, UniProt Q99640).
T2 sequence (Q99640 whole entry): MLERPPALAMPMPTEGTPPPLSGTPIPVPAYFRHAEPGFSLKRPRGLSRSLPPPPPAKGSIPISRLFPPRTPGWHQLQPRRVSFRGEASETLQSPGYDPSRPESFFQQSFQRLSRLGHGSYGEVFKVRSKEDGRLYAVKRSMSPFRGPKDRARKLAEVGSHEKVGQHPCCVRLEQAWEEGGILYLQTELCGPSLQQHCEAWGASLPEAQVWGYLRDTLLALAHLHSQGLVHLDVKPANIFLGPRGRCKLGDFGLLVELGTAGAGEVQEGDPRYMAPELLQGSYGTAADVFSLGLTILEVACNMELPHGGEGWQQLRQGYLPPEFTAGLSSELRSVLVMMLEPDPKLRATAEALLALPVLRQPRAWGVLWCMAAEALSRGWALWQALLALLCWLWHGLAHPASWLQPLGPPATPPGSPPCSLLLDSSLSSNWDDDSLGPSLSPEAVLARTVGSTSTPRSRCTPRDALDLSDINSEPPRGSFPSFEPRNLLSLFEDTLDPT

The target of assay [7] is Tyrosine-protein kinase Yes (Homo sapiens, UniProt P07947).
In assay [8] the target is Mitogen-activated protein kinase kinase kinase 20 (Homo sapiens, UniProt Q9NYL2).
Assay [9] has as its target Ephrin type-A receptor 7 (Homo sapiens, UniProt Q15375).
Assay [10] concerns the target T3, Probable ATP-dependent RNA helicase DDX6 (Homo sapiens, UniProt P26196).
T3 sequence (P26196 whole entry): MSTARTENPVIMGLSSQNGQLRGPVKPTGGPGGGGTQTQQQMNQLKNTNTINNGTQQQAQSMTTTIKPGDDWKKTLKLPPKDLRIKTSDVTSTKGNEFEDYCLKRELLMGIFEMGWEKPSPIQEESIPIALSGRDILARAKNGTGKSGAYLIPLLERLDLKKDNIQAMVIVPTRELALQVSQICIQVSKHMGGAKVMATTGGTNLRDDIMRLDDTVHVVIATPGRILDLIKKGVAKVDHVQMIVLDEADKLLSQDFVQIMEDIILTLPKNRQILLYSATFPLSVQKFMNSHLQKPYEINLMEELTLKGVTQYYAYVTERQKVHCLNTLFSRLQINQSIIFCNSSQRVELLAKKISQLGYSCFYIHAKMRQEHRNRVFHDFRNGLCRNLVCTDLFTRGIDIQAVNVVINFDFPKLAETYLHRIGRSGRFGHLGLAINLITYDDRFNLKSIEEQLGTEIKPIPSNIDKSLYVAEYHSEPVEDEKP

Assay [11] addresses Casein kinase I isoform delta (Homo sapiens, UniProt P48730).
Assay [12] concerns the target Focal adhesion kinase 1 (Homo sapiens, UniProt Q05397).
The target in assay [13] is Serine/threonine-protein kinase/endoribonuclease IRE2 (Homo sapiens, UniProt Q76MJ5).

Chain of Casein kinase II subunit alpha' (P19784 whole entry): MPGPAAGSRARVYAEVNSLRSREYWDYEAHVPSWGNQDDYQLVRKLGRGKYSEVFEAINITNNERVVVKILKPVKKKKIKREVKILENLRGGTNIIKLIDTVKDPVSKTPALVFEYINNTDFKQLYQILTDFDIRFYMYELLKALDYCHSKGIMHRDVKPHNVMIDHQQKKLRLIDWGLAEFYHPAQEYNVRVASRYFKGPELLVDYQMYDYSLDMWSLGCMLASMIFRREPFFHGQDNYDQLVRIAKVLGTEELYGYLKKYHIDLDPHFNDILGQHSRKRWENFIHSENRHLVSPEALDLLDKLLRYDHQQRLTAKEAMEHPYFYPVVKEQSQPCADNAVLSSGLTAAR
Chain of Epidermal growth factor receptor (P00533 whole entry): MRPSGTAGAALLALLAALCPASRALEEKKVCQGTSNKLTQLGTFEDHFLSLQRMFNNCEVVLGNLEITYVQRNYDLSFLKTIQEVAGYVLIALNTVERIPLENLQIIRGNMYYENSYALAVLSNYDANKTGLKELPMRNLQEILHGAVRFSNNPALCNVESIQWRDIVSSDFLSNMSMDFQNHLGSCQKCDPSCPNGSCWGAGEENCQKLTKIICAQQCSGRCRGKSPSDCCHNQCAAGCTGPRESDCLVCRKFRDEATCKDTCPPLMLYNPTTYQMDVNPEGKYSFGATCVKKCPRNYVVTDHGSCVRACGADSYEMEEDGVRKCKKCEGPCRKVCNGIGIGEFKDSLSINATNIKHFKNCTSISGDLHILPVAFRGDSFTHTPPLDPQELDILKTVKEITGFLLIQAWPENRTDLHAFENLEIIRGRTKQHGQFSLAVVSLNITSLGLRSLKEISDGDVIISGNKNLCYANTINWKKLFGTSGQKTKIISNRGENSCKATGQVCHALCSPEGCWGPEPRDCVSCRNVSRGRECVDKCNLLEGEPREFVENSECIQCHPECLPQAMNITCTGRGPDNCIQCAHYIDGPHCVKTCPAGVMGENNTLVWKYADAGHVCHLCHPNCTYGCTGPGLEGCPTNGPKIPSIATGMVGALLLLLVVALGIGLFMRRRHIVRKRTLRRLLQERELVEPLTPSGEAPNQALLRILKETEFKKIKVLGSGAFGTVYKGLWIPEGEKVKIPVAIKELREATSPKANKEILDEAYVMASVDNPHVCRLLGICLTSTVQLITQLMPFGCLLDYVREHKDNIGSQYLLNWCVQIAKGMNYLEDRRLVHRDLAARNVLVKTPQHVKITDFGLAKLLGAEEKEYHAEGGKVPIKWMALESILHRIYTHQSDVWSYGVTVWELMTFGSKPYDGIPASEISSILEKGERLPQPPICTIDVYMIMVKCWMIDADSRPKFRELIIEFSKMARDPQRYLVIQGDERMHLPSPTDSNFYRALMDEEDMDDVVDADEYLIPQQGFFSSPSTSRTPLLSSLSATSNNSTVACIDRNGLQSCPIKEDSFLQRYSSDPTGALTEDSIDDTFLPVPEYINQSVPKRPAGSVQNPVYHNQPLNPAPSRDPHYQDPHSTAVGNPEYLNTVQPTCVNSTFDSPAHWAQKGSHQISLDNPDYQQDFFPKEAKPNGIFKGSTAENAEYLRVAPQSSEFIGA
Chain of Ephrin type-A receptor 7 (Q15375 whole entry): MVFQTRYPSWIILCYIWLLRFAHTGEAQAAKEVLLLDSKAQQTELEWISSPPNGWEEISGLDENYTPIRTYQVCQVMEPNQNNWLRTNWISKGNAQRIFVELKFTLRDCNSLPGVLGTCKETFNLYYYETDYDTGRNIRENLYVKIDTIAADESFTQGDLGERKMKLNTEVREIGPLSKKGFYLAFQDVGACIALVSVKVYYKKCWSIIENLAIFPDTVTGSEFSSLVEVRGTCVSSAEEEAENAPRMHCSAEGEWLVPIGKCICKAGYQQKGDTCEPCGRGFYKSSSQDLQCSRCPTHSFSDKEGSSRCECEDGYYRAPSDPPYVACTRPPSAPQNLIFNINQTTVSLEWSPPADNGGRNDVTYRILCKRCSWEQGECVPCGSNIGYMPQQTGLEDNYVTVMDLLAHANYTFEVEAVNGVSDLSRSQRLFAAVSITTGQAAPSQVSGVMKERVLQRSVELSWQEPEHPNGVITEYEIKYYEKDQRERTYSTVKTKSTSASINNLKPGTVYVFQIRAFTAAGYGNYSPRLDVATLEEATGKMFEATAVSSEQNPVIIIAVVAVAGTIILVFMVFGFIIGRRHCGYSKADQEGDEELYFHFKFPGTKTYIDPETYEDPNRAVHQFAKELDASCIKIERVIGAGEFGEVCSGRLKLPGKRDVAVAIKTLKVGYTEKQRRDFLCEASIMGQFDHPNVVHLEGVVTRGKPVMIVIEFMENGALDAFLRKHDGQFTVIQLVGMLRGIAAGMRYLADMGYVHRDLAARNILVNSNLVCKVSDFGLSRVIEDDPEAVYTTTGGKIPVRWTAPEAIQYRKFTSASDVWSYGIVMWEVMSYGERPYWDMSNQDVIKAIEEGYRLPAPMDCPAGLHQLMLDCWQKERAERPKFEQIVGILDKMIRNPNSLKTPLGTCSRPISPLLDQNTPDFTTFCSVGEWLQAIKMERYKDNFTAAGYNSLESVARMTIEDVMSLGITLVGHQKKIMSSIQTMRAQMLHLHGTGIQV
Chain of Serine/threonine-protein kinase PAK 4 (O96013 whole entry): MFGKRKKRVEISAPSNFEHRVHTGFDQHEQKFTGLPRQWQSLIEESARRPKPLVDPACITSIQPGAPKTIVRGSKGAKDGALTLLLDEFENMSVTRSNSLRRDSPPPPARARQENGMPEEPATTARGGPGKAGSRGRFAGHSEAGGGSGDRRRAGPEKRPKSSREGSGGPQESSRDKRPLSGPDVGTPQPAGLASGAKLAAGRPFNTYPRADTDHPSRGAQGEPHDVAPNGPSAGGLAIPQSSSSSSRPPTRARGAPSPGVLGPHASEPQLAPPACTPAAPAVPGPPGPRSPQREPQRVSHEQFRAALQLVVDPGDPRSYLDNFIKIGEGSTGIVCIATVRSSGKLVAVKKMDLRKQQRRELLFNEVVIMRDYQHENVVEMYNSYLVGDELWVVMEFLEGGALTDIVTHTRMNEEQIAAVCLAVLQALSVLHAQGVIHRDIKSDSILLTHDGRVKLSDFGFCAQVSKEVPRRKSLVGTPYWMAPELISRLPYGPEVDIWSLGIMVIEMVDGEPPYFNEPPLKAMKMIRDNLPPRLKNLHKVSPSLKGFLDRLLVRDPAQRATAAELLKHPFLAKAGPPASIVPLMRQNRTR
Chain of Casein kinase I isoform delta (P48730 whole entry, canonical isoform): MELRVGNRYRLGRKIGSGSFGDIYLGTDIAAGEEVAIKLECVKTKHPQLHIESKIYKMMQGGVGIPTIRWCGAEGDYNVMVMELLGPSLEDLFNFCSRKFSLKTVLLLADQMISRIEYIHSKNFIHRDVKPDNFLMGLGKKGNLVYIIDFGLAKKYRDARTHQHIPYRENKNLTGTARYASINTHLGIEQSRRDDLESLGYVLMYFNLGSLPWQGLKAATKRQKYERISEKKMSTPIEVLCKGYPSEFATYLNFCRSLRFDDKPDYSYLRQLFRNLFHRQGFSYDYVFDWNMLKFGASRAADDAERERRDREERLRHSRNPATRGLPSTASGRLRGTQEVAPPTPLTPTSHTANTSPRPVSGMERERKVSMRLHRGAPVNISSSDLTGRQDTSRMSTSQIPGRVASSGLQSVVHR
Chain of Focal adhesion kinase 1 (Q05397 whole entry): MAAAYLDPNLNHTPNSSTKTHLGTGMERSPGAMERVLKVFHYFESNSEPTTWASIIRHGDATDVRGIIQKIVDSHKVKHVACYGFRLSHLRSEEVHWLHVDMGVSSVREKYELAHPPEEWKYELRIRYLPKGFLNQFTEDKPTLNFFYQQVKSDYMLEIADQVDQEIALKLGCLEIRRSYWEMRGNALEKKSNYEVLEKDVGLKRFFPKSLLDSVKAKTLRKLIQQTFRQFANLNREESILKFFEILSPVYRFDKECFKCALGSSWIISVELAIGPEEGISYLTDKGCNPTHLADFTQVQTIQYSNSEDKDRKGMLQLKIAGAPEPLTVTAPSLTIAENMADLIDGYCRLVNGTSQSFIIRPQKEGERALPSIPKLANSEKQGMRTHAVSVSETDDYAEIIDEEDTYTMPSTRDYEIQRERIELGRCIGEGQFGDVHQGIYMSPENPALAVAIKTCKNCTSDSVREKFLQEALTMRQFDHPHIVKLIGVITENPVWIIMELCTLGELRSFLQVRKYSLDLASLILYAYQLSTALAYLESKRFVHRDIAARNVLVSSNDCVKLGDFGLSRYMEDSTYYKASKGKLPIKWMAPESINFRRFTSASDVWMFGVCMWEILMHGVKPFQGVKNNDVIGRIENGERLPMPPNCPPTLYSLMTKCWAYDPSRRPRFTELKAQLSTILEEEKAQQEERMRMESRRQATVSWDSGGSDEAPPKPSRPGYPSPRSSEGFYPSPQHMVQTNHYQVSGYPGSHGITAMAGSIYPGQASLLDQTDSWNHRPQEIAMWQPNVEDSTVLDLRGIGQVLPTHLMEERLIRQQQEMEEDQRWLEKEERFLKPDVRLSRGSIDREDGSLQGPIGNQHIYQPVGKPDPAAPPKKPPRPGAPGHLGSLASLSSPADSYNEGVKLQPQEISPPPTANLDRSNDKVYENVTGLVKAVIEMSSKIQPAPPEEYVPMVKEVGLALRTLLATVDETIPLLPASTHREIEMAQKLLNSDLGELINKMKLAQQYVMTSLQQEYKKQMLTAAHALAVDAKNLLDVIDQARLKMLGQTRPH

Take `CC(C)c1cc(CNc2nc(Nc3cc(C4CC4)[nH]n3)cc(N3CCN(C)CC3)n2)on1` [XL-228]: the Kd in [1] was 1.12 µM (active); in [2], 50.4 µM; in assay [3], > 30 µM (inactive); in assay [4], 2.44 µM (active); in assay [5], > 30 µM (inactive); in [6] it was > 30 µM (inactive). Moreover, the Kd was 0.171 µM (active) in assay [7]; > 30 µM (inactive) in [8]; 0.017 µM (active) in assay [9]; > 30 µM (inactive) in assay [10]; > 30 µM (inactive) in assay [11]; 0.022 µM (active) in assay [12]. The Kd in assay [13] was > 30 µM (inactive).

As to `C[C@@H](N)c1ccc(C(=O)Nc2ccnc3[nH]ccc23)cc1` [Y-39983], the Kd was > 30 µM (inactive) in [1]; > 30 µM (inactive) in [2]; > 30 µM (inactive) in [3]; 2.74 µM (active) in assay [4]; > 30 µM (inactive) in [5]; > 30 µM (inactive) in [6]. Also, the Kd in [7], in assay [8], in assay [9], in assay [10], in [11] and in [12] was > 30 µM (inactive) in each case. For the same molecule, the Kd in assay [13] is > 30 µM (inactive).

Turning to `CN1C/C=C/CCOc2cccc(c2)-c2ccnc(n2)Nc2cccc(c2)C1` [ZOTIRACICLIB], the Kd is > 30 µM (inactive) in assay [1]; > 30 µM (inactive) in assay [2]; > 30 µM (inactive) in assay [3]; 2.3 µM (active) in assay [4]; 79.9 µM in assay [5]; > 30 µM (inactive) in [6]. Further, the Kd in [7] is > 30 µM (inactive); in assay [8], > 30 µM (inactive); in assay [9] it was > 30 µM (inactive); in [10], > 30 µM (inactive); in assay [11] it was 2.38 µM (active); in assay [12], > 30 µM (inactive). Further, the Kd in assay [13] was > 30 µM (inactive).

One may read the Kd as the concentration at which binding is half-saturated.
